According to publication PMC8000395, “Effective Small Molecule Antibacterials from a Novel Anti-Protein Secretion Screen” (Microorganisms, 2021):
Where two headings read alike, the source gives them in different places.

Experiments:
Haemophilus influenzae = test: Antimicrobial activity test (growth, OD600); type: cell-based; conditions: read-out: Bacterial Viability (IC50)
Serratia marcescens = test: Antimicrobial activity test (growth, OD600); type: cell-based; conditions: read-out: Bacterial Viability (IC50)
[1] = system: Mycobacterium abscessus ATCC19977; test: Antimicrobial activity test (growth, OD600); type: cell-based; conditions: Mycobacteroides abscessus, read-out: Bacterial Viability (IC50)
[2] = system: E. coli BW25113::imp-2413+; test: Antimicrobial activity test (growth, OD600); conditions: Escherichia coli, BW25113, read-out: Viability IC50, BW25113::imp-2413+
[3] = system: PhoA secretion in E. coli BW25113; test: Lab-scale p-nitrophenyl PhoA secretion assay, BW25113; type: cell-based; conditions: Escherichia coli, read-out: PhoA secretion in vivo IC50, E. coli BW25113
Salmonella typhimurium = test: Antimicrobial activity test (growth, OD600); type: cell-based; conditions: Salmonella enterica, read-out: Bacterial Viability (IC50)
Gram-positive bacteria = test: Antimicrobial activity test, summary over Gram-positive bacteria; type: cell-based
E. coli MC4100 = test: Antimicrobial activity test (growth, OD600); type: cell-based; conditions: Escherichia coli, MC4100; 20 h, 37 °C, OD600; read-out: Bacterial Viability IC50, E. coli MC4100
[4] = B. subtilis, S. aureus, E. faecalis, S. pneumoniae, M. abscessus, read-out: Viability of Gram-positive bacteria IC50 (range over species)
[5] = for 80% of strains, selection threshold, Figure 1B, read-out: Bactericidal activity Gram+ IC50

Compound	IC50 (Haemophilus influenzae) [µM]	IC50 (Serratia marcescens) [µM]	IC50 [1] [µM]	IC50 [2] [µM]	IC50 [3] [µM]	IC50 (Salmonella typhimurium) [µM]	IC50 (Gram-positive bacteria; [4]) [µM]	IC50 (Gram-positive bacteria; [5]) [µM]	IC50 (E. coli MC4100) [µM]
O=C(/C=C/c1csnn1)c1ccccc1Cl [HSI#01]	> 100	> 100	33.8	23.2	8.13	> 100	7 to 38	< 28	> 100
O=C(/C=C/c1csnn1)c1cc(Cl)ccc1Cl [HSI#05]	> 100	> 100	17.9	10.3	3.2	> 100	7 to 38	< 28	> 100
O=C(/C=C/c1csnn1)c1cccc2ccccc12 [HSI#10]	> 100	> 100	21.8	12.2	24.9	> 100	7 to 38	< 28	> 100
